Reference: patent publication US20240374580A1, “SMALL MOLECULE INHIBITORS OF AUTOPHAGY AND HISTONE DEACTYLASES AND USES THEREOF” (priority 2021, published 2024)
Like-named read-outs stand apart in the source and are kept apart here.

Experiments:
[1] = test system: rings of rat PA
Protocol: Due to the key role of autophagy in the pathogenesis of many diseases, we (the inventors) were very interested in exploring the benefit of autophagy inhibition for other indications beyond cancer. […] Such experiments first quantified the vasorelaxant effect on rings of rat PA (FIG. 2). […] Similarly. […] Additionally. […] Rats were given a subcutaneous (s.c.) injection of 20 mg/kg SU5416 or vehicle, followed by hypoxia (SuHx) for 3 weeks (10% 02) and normoxia for an additional 2 weeks to elicit severe PH. […] The normoxic control group was exposed to room air only (21% 02) for a total of 5 weeks (Nor).

[2] = test system: human PASMC; experiment: Ca2+ dynamics and whole-cell Ca2+ currents in PASMC; format: cell-based
Protocol: (B) Summarized data showing the amplitude of increase in [Ca2+]cyt induced by application of 10 μM CPA in the absence (first peak) or presence (second peak) of 1.8 mM extracellular Ca2+ (n=44-54 PASMC). […] (D) Summarized data showing [Ca2+]cyt before (basal) and during (ATP) application of ATP in control and CHQ-treated PASMC. Means±SEM, *P<0.05. (E) Summarized data showing ATP-induced increases in [Ca2+]cyt in control and CHQ-treated PASMC. means±SEM *P<0.05. […] Means±SEM, *P<0.05. (G) The current-voltage (I-V) relationship curves constructed from current recordings in PASMC before (Cont), during (CHQ) and after (wash) application of CHQ.
(§1) Similarly. […] Additionally.

[3] = test system: isolated perfused and ventilated lungs; experiment: PAP in isolated perfused and ventilated lungs (CHQ); details: 200 μM, intrapulmonary application
Protocol: FIG. 5A-C. […] (A) Left, PAP in isolated perfused and ventilated lungs before, during and after repeated pulmonary arterial perfusion of 40 mM K+ (40K) solution.
as §1

[4] = test system: human PASMC; experiment: Autophagy markers P62 and LC3B in PASMC (Western blot, immunofluorescence); format: cell-based; details: 20 μM, 24 h
From the text: as §1

[5] = test system: HPH in rats; experiment: Development of HPH in rats (hypoxia 10% O2 for 21 days); format: in vivo, rat; details: 50 mg/kg/day, hypoxia 21 days
From the text: (E) Representative H&E images of small PAs in Nor, Nor+CHQ, Hyp and Hyp+CHQ rats.
as §1

[6] = test system: SuHx-PH rat model; experiment: Established PH in the SuHx rat model; format: in vivo; details: 50 mg/kg/day for 2 weeks after 3 weeks SuHx
From the text: FIG. 9A-C. […] (A) Representative right ventricular pressure (RVP).
as §1

[7] = test system: autophagy; experiment: Initial preclinical studies of potency against HCQ; details: greater than HCQ
From the text: (§2) Example data from our published studies are shown here.

[8] = test system: MV4-11 cells; experiment: Transmission electron microscopy of autophagosomes; format: cell-based; details: 1 μM
Protocol: FIG. 11. ROC-325 triggers the formation of autophagosomes with undegraded cargo. MV4-11 cells were treated with 1 μM ROC-325 as indicated and visualized by transmission electron microscopy (TEM).
as §2

[9] = test system: leukemia cells; experiment: LysoSensor Green lysosomal pH (confocal microscopy, FACS); format: cell-based; details: 1 μM, 6 h
Protocol: FIG. 12. Treatment with ROC-325 leads to lysosomal deacidification. Cells were treated with 1 μM ROC-325 for 6 h, stained with Lysosensor Green and propidium iodide (PI, nuclear counterstain) and then visualized by confocal microscopy.
as §2

[10] = test system: autophagy; experiment: Autophagy markers LC3B and p62 after ROC-325; format: cell-based
From the text: as §2

[11] = test system: normal human CD34+ bone marrow (BM) cells
From the text: (§3) The majority of lysosomal proteases that control the autophagy-mediated degradation of proteins and organelles require a strict acidic pH microenvironment for their enzymatic activity. Based on this, lysosomal acidity is commonly used as a marker of autophagy status. We treated leukemia cells with ROC-325 and used LysoSensor Green to evaluate the effects of drug treatment on lysosomal pH.

[12] = test system: renal proximal tubal endothelial cells (RPTEC)
From the text: as §3

[13] = Protocol: FIG. 13. […] Mice were treated with vehicle, ROC-325, or HCQ as indicated daily for 42 consecutive days. […] Mean±SD.
as §3

[14] = test system: MCT-injected rats; experiment: RVP/RVSP in control and MCT-injected rats; format: in vivo, rat; details: 10 mg/kg daily for 4w
Protocol: (§4) FIG. 14A-E. ROC-325 has promising therapeutic activity in models of PH. A-C: in vivo intact animal experiments (ROC-325 was administered daily at 10 mg/kg for 4w). (A) Representative record showing right ventricular pressure (RVP) in control and ROC-treated rats during normoxia. […] (B) Representative record showing right ventricular pressure (RVP) in control rats, MCT-injected rats and MCT-injected rats treated with ROC. (C) Summarized data showing right ventricular systolic pressure (RVSP), a surrogate measure for pulmonary arterial systolic pressure ([…]), in control, MCT-rats (treated with vehicle) and MCT-rats treated with ROC. […] D-E: ex vivo experiment using isolated perfused/ventilated mouse lungs (ROC was applied via intrapulmonary perfusion for 5 min). (D) Representative record showing pulmonary arterial pressure (PAP) in isolated perfused/ventilated mouse lung before, during and after intrapulmonary arterial perfusion of 40 mM K+ (40K) in the absence or presence of ROC. (E) Summarized data showing 40K-induced increases in PAP before (control), during (ROC) and after (washout) application of ROC.
(§5) Finally, we tested the therapeutic benefit of ROC-325 in models of experimental PH (FIG. 14). ROC-325 was administered to rats daily at 10 mg/kg for 4w under normoxic and hypoxic conditions. […]

[15] = test system: isolated perfused/ventilated mouse lungs; experiment: PAP in isolated perfused/ventilated mouse lungs (ROC-325); details: intrapulmonary perfusion for 5 min, 40 mM K+
Protocol: as §4, §5

[16] = Oral availability of ROC-325; details: in vivo
From the text: as §2

[17] = test system: broad range of tumor types; details: cited from earlier work
[18] = clinical; details: human, in vivo
[19] = Phase I clinical trial of HCQ with vorinostat, pharmacokinetic analyses; details: humans

Q: For CCN(CC)CCCC(C)Nc1ccnc2cc(Cl)ccc12 (stereo not drawn) [CHQ, chloroquine], which “role of the endothelium in the vasorelaxant effect” value ([1]; 200 μM, endothelium-intact or endothelium-denuded rings pre-constricted with 1 μM PE) is on record?
A: The value was “endothelium independent”.

Q: What about the “effect of K+ channel blockade on pulmonary vasodilation” value ([1]; 200 μM, rings pretreated with paxilline, TEA or ChTX) of the same compound?
A: Its value is “does not affect the ability of CHQ to induce pulmonary vasodilation”.

Q: And the “isometric tension in isolated PA rings” value ([1]; rings constricted with 1 μM phenylephrine (PE))?
A: Its value is “decreased isometric tension”.

Q: What about the “store-operated Ca2+ entry” value ([2]; 200 μM, 10 μM CPA) of the same compound?
A: The value was “inhibits store-operated Ca2+ entry”.

Q: What about the “whole-cell Ca2+ currents” value ([2]; test pulse of +10 mV from −70 mV) of the same compound?
A: Its value is “reduces whole-cell Ca2+ currents”.

Q: What about the “40K-induced increases in PAP” value [3] of the same compound?
A: Its value is “could antagonize the 40K-induced increases in PAP”.

Q: What about the “pulmonary vasoconstriction induced by high K+ or hypoxia” value [3] of the same compound?
A: Its value is “attenuates pulmonary vasoconstriction induced by high K+ concentrations or hypoxia”.

Q: And the “autophagy (p62 and LC3B)” value [4]?
A: Its value is “inhibited autophagy”.

Q: What about the PA wall thickness [5] of the same compound?
A: The PA wall thickness was “reduced PA wall thickness”.

Q: What about the “right ventricular systolic pressure (RVSP)” value [5] of the same compound?
A: Its value is “significantly reduced RVSP”.

Q: What about the “progression of established PH” value [6] of the same compound?
A: The value was “significant therapeutic benefit against established PH progression”.

Q: What about the “reversal of established PH” value [6] of the same compound?
A: Its value is “partially reversed established PH”.

Q: Which “potency relative to HCQ” value [7] does the source give for Cc1ccc(NCCN(C)CCNc2ccnc3cc(Cl)ccc23)c2c(=O)c3ccccc3sc12 [ROC-325] here?
A: Its value is “approximately 10 fold”.

Q: What about the “autophagosomes with undegraded cargo (TEM)” value [8] of the same compound?
A: Its value is “triggered the accumulation of autophagosomes with undegraded cargo”.

Q: What about the “lysosomal pH (LysoSensor Green fluorescence)” value [9] of the same compound?
A: Its value is “stimulated lysosomal deacidification”.

Q: And the “autophagy marker LC3B” value [10]?
A: The value was “stimulated the autophagy marker LC3B”.

Q: And the p62 [10]?
A: Its p62 is “accumulation of p62”.

Q: What about the therapeutic selectivity [11] of the same compound?
A: The therapeutic selectivity was “strong therapeutic selectivity”.

Q: And the therapeutic selectivity [12]?
A: Its therapeutic selectivity is “strong therapeutic selectivity”.

Q: And the mouse body weight ([13]; daily for 42 consecutive days)?
A: The mouse body weight was “No significant loss of mouse body weight”.

Q: What about the tolerability ([13]; oral, daily, 42 days, mice) of the same compound?
A: The tolerability was “confirmed its tolerability”.

Q: What about the “basal hemodynamics (RVP) in control rats” value [14] of the same compound?
A: The value was “no effect on basal hemodynamics”.

Q: And the “development of experimental PH (RVSP)” value ([14]; MCT-injected rats)?
A: Its value is “significantly inhibited the development of experimental PH”.

Q: And the “high K+-induced pulmonary vasoconstriction (PAP)” value [15]?
A: The value was “acutely inhibits high K+-induced pulmonary vasoconstriction”.

Q: And the oral bioavailability [16]?
A: Its oral bioavailability is “orally bioavailable”.

Q: And the “single agent anticancer activity compared to HCQ” value ([17]; broad range of tumor types)?
A: Its value is “significantly superior single agent anticancer activity”.

Q: What about the “dose needed to inhibit autophagy compared to HCQ” value [17] of the same compound?
A: Its value is “inhibits autophagy at significantly lower doses”.

Q: Which mouse body weight ([13]; mouse, in vivo) does the source give for CCN(CCO)CCCC(C)Nc1ccnc2cc(Cl)ccc12 (stereo not drawn) [HCQ, hydroxychloroquine] here?
A: Its mouse body weight is “No significant loss of mouse body weight”.

Q: What about the Cmax [18] of the same compound?
A: Its Cmax is < 3000 nM.

Q: What about the “maximum tolerated dose (MTD)” value [19] of the same compound?
A: The value was 600 mg/day.
